Literature values in patent US20050065732A1, “Matrix methods for quantitatively analyzing and assessing the properties of botanical samples” (priority 2001, published 2005).

How the values were obtained:
[1] = test system: HUVECs
[2] = test system: human umbilical vein endothelial cells (HUVECs)

Compound	PAI-1 antigen synthesis [1]	TPA mRNA [1]	TPA synthesis [1]	expression of PAI-1-specific mRNA [1]	urokinase-type plasminogen activator antigen synthesis [1]	plasminogen activator inhibitor type I (PAI-1) specific mRNA expression [2]	tissue-type plasminogen activator (t-PA) specific mRNA [2]
CC(C)=CCC[C@](C)(O[C@@H]1O[C@H](CO)[C@@H](O)[C@H](O)[C@H]1O)[C@H]1CC[C@]2(C)[C@@H]1[C@H](O)C[C@@H]1[C@@]3(C)CC[C@H](O)C(C)(C)[C@@H]3[C@@H](O[C@@H]3O[C@H](CO)[C@@H](O)[C@H](O)[C@H]3O[C@@H]3OC[C@@H](O)[C@H](O)[C@H]3O)C[C@]12C [NR1, notoginsenoside R1]	did not change	increased as much as twofold	dose- and time-dependent increase	not significantly affected	did not change		
CC(C)(O)[C@@H]1CC[C@](C)([C@H]2[C@@H](O)C[C@@]3(C)[C@@H]4C[C@H](O[C@@H]5O[C@H](CO)[C@@H](O)[C@H](O)[C@H]5O)[C@H]5C(C)(C)[C@@H](O[C@@H]6OC[C@@H](O)[C@H](O)[C@H]6O)CC[C@@]56C[C@@]46CC[C@]23C)O1 [astragaloside IV]						decreased	increased
